Results published in the OligoGym collection.
Oligonucleotides are written 5' to 3', each unit as a sugar letter and its base; * is a phosphorothioate linkage, no mark a phosphodiester; rarer units and linkages stand in square brackets, end groups in braces. Plain capitals give the bases only. d = 2'-deoxy (DNA); r = 2'-OH (RNA)
Also: test concentration or dose not given here.

Each substance was assayed against DENND5A (assay: reporter assay of Huesken 2005). Details: siRNA.
Substance “sense rCrCrUrCrUrArCrCrArCrArUrGrCrArCrArArUdTdT / antisense rArUrUrGrUrGrCrArUrGrUrGrGrUrArGrArGrGdGdT” has a normalised inhibition (eCFP-eYFP dual reporter) of 68.3%.
“sense rCrCrUrUrArUrGrGrUrCrCrCrArCrCrUrGrUrUdTdT / antisense rArArCrArGrGrUrGrGrGrArCrCrArUrArArGrGdCdT” was tested, and the normalised inhibition (eCFP-eYFP dual reporter) was 62.5%.
With “sense rCrUrArUrCrArCrCrUrCrCrUrGrUrCrUrUrUrCdTdT / antisense rGrArArArGrArCrArGrGrArGrGrUrGrArUrArGdAdG” the normalised inhibition (eCFP-eYFP dual reporter) was 63.1%.
“sense rCrUrCrArArGrArGrGrCrUrArArCrCrUrCrUrGdTdT / antisense rCrArGrArGrGrUrUrArGrCrCrUrCrUrUrGrArGdGdC” gave a normalised inhibition (eCFP-eYFP dual reporter) of 52.3%.
For “sense rCrUrCrArArGrArUrUrCrCrUrGrGrArGrArCrCdTdT / antisense rGrGrUrCrUrCrCrArGrGrArArUrCrUrUrGrArGdAdG”, the normalised inhibition (eCFP-eYFP dual reporter) was 64.6%.
In the case of “sense rCrUrCrCrUrGrUrGrArCrCrArArArCrUrGrCrAdTdT / antisense rUrGrCrArGrUrUrUrGrGrUrCrArCrArGrGrArGdTdG”, the normalised inhibition (eCFP-eYFP dual reporter) is reported as 80.5%.
“sense rCrUrCrUrArCrGrUrCrUrCrUrArArGrUrGrCrAdTdT / antisense rUrGrCrArCrUrUrArGrArGrArCrGrUrArGrArGdAdG” gave a normalised inhibition (eCFP-eYFP dual reporter) of 68.3%.
Work on “sense rCrUrGrArGrGrArUrCrUrCrCrCrUrGrArUrUrCdTdT / antisense rGrArArUrCrArGrGrGrArGrArUrCrCrUrCrArGdGdG” yielded a normalised inhibition (eCFP-eYFP dual reporter) of 60.6%.
Substance “sense rCrUrGrArUrCrGrUrArCrCrArArGrCrArArGrAdTdT / antisense rUrCrUrUrGrCrUrUrGrGrUrArCrGrArUrCrArGdAdA” has a normalised inhibition (eCFP-eYFP dual reporter) of 54.7%.
For “sense rCrUrGrGrArUrUrGrCrCrCrUrGrCrUrGrGrCrUdTdT / antisense rArGrCrCrArGrCrArGrGrGrCrArArUrCrCrArGdTdG”, the normalised inhibition (eCFP-eYFP dual reporter) was 63.7%.
Work on “sense rCrUrGrUrCrGrGrCrArUrUrArUrGrCrCrArGrUdTdT / antisense rArCrUrGrGrCrArUrArArUrGrCrCrGrArCrArGdCdT” yielded a normalised inhibition (eCFP-eYFP dual reporter) of 73%.
With “sense rCrUrGrUrCrUrUrUrCrArArUrGrCrCrGrUrCrGdTdT / antisense rCrGrArCrGrGrCrArUrUrGrArArArGrArCrArGdGdA” the normalised inhibition (eCFP-eYFP dual reporter) was 47.4%.
Work on “sense rCrUrUrCrUrArArArGrCrCrArGrGrGrArUrGrGdTdT / antisense rCrCrArUrCrCrCrUrGrGrCrUrUrUrArGrArArGdCdC” yielded a normalised inhibition (eCFP-eYFP dual reporter) of 46.4%.
With “sense rCrUrUrGrArGrArGrCrUrArCrArUrArUrArCrAdTdT / antisense rUrGrUrArUrArUrGrUrArGrCrUrCrUrCrArArGdGdG” the normalised inhibition (eCFP-eYFP dual reporter) was 74.2%.
For “sense rCrUrUrGrCrCrArCrArGrUrUrCrCrCrCrArArCdTdT / antisense rGrUrUrGrGrGrGrArArCrUrGrUrGrGrCrArArGdTdC”, the normalised inhibition (eCFP-eYFP dual reporter) was 50.6%.
“sense rCrUrUrUrCrArArUrGrCrCrGrUrCrGrArUrUrAdTdT / antisense rUrArArUrCrGrArCrGrGrCrArUrUrGrArArArGdAdC” gave a normalised inhibition (eCFP-eYFP dual reporter) of 76.8%.
With “sense rCrUrUrUrGrUrGrArUrCrUrCrCrUrGrGrArArAdTdT / antisense rUrUrUrCrCrArGrGrArGrArUrCrArCrArArArGdGdC” the normalised inhibition (eCFP-eYFP dual reporter) was 65.8%.
“sense rGrArArUrGrGrGrArArCrArUrUrGrCrUrGrGrCdTdT / antisense rGrCrCrArGrCrArArUrGrUrUrCrCrCrArUrUrCdCdT” was tested, and the normalised inhibition (eCFP-eYFP dual reporter) was 45.3%.
Work on “sense rGrArCrCrCrArGrArUrGrUrUrUrGrCrArUrCrUdTdT / antisense rArGrArUrGrCrArArArCrArUrCrUrGrGrGrUrCdTdC” yielded a normalised inhibition (eCFP-eYFP dual reporter) of 71.9%.
“sense rGrArCrUrGrArArGrGrArGrArArArArUrUrUrUdTdT / antisense rArArArArUrUrUrUrCrUrCrCrUrUrCrArGrUrCdGdT” gave a normalised inhibition (eCFP-eYFP dual reporter) of 90.8%.
Work on “sense rGrArGrCrUrGrCrUrCrArCrArUrCrCrCrArGrCdTdT / antisense rGrCrUrGrGrGrArUrGrUrGrArGrCrArGrCrUrCdCdC” yielded a normalised inhibition (eCFP-eYFP dual reporter) of 42.6%.
Work on “sense rGrArGrGrArUrGrGrCrUrCrUrCrGrGrArCrArUdTdT / antisense rArUrGrUrCrCrGrArGrArGrCrCrArUrCrCrUrCdCdC” yielded a normalised inhibition (eCFP-eYFP dual reporter) of 55.9%.
With “sense rGrArGrGrUrGrGrArUrGrArGrArGrGrCrCrArUdTdT / antisense rArUrGrGrCrCrUrCrUrCrArUrCrCrArCrCrUrCdAdG” the normalised inhibition (eCFP-eYFP dual reporter) was 74.4%.
In the case of “sense rGrArUrCrCrUrArGrUrUrGrGrGrGrArGrCrUrGdTdT / antisense rCrArGrCrUrCrCrCrCrArArCrUrArGrGrArUrCdCdG”, the normalised inhibition (eCFP-eYFP dual reporter) is reported as 66.6%.
“sense rGrArUrGrArGrArGrGrCrCrArUrGrCrCrGrGrAdTdT / antisense rUrCrCrGrGrCrArUrGrGrCrCrUrCrUrCrArUrCdCdA” was tested, and the normalised inhibition (eCFP-eYFP dual reporter) was 63%.
With “sense rGrArUrGrGrUrGrArArGrArCrArCrUrCrCrUrGdTdT / antisense rCrArGrGrArGrUrGrUrCrUrUrCrArCrCrArUrCdCdT” the normalised inhibition (eCFP-eYFP dual reporter) was 82.9%.
“sense rGrCrArArUrArArGrGrArUrCrUrCrArArArGrUdTdT / antisense rArCrUrUrUrGrArGrArUrCrCrUrUrArUrUrGrCdTdG” was tested, and the normalised inhibition (eCFP-eYFP dual reporter) was 66.2%.
“sense rGrCrArCrUrUrCrCrArUrArArGrCrCrUrGrArGdTdT / antisense rCrUrCrArGrGrCrUrUrArUrGrGrArArGrUrGrCdTdT” showed a normalised inhibition (eCFP-eYFP dual reporter) of 78.7%.
In the case of “sense rGrCrCrCrGrGrArArCrUrUrCrUrGrCrCrGrArUdTdT / antisense rArUrCrGrGrCrArGrArArGrUrUrCrCrGrGrGrCdTdC”, the normalised inhibition (eCFP-eYFP dual reporter) is reported as 70.9%.
Substance “sense rGrCrUrGrArArGrArGrGrCrUrGrCrGrGrGrCrCdTdT / antisense rGrGrCrCrCrGrCrArGrCrCrUrCrUrUrCrArGrCdTdT” has a normalised inhibition (eCFP-eYFP dual reporter) of 37.4%.
Work on “sense rGrGrArArArArGrUrUrGrGrArArGrUrGrCrGrUdTdT / antisense rArCrGrCrArCrUrUrCrCrArArCrUrUrUrUrCrCdAdG” yielded a normalised inhibition (eCFP-eYFP dual reporter) of 60.8%.
With “sense rGrGrArCrUrGrGrArCrArCrGrGrArGrArCrCrGdTdT / antisense rCrGrGrUrCrUrCrCrGrUrGrUrCrCrArGrUrCrCdGdC” the normalised inhibition (eCFP-eYFP dual reporter) was 60.4%.
Substance “sense rGrGrArGrCrArArCrUrCrCrArCrCrArGrGrCrAdTdT / antisense rUrGrCrCrUrGrGrUrGrGrArGrUrUrGrCrUrCrCdAdG” has a normalised inhibition (eCFP-eYFP dual reporter) of 62.1%.
For “sense rGrGrCrCrArGrCrCrArGrCrArArCrArArGrUrGdTdT / antisense rCrArCrUrUrGrUrUrGrCrUrGrGrCrUrGrGrCrCdCdA”, the normalised inhibition (eCFP-eYFP dual reporter) was 73.7%.
In the case of “sense rGrGrCrUrArArCrCrUrCrUrGrCrUrUrUrGrUrGdTdT / antisense rCrArCrArArArGrCrArGrArGrGrUrUrArGrCrCdTdC”, the normalised inhibition (eCFP-eYFP dual reporter) is reported as 70.2%.
With “sense rGrGrCrUrGrGrCrArUrUrCrArArGrArCrCrCrAdTdT / antisense rUrGrGrGrUrCrUrUrGrArArUrGrCrCrArGrCrCdCdT” the normalised inhibition (eCFP-eYFP dual reporter) was 75.8%.
“sense rGrGrGrArArArUrCrArGrCrCrUrUrArUrGrGrUdTdT / antisense rArCrCrArUrArArGrGrCrUrGrArUrUrUrCrCrCdCdT” was tested, and the normalised inhibition (eCFP-eYFP dual reporter) was 61.1%.
